Experimental data as given in ChEMBL document CHEMBL1157802, “5-Functionalized indazoles as glucocorticoid receptor agonists” (Bioorg Med Chem Lett, 2010).

Tests used:
[1] = Inhibition of phencyclidine receptor at 1 uM
[2] = molecular target: Beta-1 adrenergic receptor (Homo sapiens) (UniProt P08588); assay: Inhibition of adrenergic beta-1 receptor at 1 uM
[3] = Inhibition of nicotinic acetylcholine receptor at 1 uM
[4] = molecular target: T1, Alpha-2A adrenergic receptor (Homo sapiens) (UniProt P08913); assay: Inhibition of adrenergic alpha2A receptor at 1 uM
T1 sequence (whole entry): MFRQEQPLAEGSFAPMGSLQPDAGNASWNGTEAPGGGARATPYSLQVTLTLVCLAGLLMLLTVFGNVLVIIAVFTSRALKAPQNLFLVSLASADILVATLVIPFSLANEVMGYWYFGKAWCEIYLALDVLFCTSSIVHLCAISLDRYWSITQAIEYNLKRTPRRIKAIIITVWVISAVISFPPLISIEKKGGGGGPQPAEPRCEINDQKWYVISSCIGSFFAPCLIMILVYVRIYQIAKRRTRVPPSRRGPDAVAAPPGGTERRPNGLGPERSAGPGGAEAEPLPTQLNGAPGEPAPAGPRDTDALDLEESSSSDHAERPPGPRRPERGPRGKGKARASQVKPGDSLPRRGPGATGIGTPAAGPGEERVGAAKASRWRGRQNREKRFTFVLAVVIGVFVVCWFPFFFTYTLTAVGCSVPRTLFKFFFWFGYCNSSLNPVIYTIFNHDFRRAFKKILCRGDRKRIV

[5] = Selectivity for human glucocorticoid receptor over progesterone receptor
[6] = Inhibition of sigma 2 receptor at 1 uM
[7] = Selectivity for human glucocorticoid receptor over ERbeta
[8] = Inhibition of central benzodiazepine receptor at 1 uM
[9] = Inhibition of calcium channel L type dihydropyridine binding site at 1 uM
[10] = Inhibition of nicotinic bungarotoxin-sensitive acetylcholine receptor at 1 uM
[11] = molecular target: D(2) dopamine receptor (Homo sapiens) (UniProt P14416); assay: Inhibition of dopamine D2S receptor at 1 uM
Chain of D(2) dopamine receptor (Homo sapiens) (P14416 whole entry): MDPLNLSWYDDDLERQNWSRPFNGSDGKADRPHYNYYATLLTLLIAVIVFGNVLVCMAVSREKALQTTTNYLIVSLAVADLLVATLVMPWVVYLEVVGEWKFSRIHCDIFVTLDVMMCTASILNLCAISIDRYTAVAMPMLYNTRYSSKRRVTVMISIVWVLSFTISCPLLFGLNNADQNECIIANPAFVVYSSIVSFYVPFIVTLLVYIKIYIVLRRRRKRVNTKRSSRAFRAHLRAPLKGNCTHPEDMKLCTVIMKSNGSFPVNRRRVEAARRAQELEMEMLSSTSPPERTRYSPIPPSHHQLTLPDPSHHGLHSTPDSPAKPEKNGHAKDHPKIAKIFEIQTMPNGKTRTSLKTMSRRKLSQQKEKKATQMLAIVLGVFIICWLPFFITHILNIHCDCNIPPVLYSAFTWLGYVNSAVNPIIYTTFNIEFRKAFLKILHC

[12] = molecular target: T2, Alpha-1A adrenergic receptor (Homo sapiens) (UniProt P35348); assay: Inhibition of adrenergic alpha1A receptor at 1 uM
T2 sequence (whole entry): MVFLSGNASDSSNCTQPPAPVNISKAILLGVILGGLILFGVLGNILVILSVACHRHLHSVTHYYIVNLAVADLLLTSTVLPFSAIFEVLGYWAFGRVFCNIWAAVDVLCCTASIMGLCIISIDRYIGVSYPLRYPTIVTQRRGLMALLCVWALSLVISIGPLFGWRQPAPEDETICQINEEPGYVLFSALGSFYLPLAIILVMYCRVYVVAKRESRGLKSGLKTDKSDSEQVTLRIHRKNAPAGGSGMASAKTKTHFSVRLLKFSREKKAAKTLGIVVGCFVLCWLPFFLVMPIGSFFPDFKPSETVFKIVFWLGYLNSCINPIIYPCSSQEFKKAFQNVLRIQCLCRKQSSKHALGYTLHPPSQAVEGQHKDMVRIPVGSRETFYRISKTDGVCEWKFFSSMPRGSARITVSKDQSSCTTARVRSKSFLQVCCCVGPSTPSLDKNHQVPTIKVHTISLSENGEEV

[13] = molecular target: Beta-2 adrenergic receptor (Homo sapiens) (UniProt P07550); assay: Inhibition of adrenergic beta2 receptor at 1 uM
Chain of Beta-2 adrenergic receptor (Homo sapiens) (P07550 whole entry, looked up): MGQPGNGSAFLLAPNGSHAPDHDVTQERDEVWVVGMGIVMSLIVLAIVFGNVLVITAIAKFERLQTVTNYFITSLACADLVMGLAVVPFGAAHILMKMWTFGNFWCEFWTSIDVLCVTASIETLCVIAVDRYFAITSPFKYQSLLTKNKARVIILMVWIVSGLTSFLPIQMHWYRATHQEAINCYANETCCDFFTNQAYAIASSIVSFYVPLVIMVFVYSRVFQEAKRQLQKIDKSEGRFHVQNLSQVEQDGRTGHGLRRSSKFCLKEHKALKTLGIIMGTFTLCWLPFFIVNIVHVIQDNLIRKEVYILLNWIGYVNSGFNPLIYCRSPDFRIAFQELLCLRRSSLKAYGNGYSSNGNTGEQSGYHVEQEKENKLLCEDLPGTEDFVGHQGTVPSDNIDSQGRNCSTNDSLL

[14] = Inhibition of sodium channel site 2 at 1 uM
[15] = molecular target: T3, Glucocorticoid receptor (Homo sapiens, UniProt P04150); assay: Agonist activity at glucocorticoid receptor in human fibroblast assessed as inhibition of IL-1-beta-induced IL6 production treated 1 hr before IL1-beta challenge measured after 24 hrs by transrepression assay; type: functional
T3 sequence (P04150 whole entry): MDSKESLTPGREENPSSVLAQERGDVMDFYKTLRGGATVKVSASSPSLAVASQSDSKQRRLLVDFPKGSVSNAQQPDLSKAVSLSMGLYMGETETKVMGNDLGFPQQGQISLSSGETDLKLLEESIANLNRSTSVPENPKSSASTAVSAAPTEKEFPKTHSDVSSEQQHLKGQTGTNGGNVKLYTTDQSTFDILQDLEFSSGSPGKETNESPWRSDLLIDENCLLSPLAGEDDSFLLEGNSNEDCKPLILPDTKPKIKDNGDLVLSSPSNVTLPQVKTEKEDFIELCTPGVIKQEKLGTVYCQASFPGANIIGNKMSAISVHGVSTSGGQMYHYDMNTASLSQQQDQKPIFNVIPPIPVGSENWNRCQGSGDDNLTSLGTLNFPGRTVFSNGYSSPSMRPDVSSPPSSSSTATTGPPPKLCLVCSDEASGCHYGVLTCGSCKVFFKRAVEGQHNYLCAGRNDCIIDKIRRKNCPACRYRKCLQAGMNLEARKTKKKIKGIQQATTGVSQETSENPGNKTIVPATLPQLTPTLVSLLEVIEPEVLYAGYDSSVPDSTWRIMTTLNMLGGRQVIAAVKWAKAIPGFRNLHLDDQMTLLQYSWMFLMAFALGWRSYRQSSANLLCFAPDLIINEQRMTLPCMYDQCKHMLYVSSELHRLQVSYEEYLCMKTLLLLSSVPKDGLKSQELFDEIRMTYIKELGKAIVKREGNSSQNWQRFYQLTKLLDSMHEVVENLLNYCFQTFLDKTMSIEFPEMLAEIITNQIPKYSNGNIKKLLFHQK

[16] = Inhibition of NMDA receptor at 1 uM
[17] = molecular target: T3, Glucocorticoid receptor; assay: Agonist activity at glucocorticoid receptor in human MDA-kb2 cells transfected with MMTV-LUC assessed as induction of MMTV-LTR/promoter linked LUC gene by luciferase transactivation assay; type: functional, cell-based; conditions: mda-kb2
[18] = Inhibition of phorbol ester site of PKC at 1 uM
[19] = molecular target: Sigma non-opioid intracellular receptor 1 (Homo sapiens) (UniProt Q99720); assay: Inhibition of sigma 1 receptor at 1 uM
Chain of Sigma non-opioid intracellular receptor 1 (Homo sapiens) (Q99720 whole entry): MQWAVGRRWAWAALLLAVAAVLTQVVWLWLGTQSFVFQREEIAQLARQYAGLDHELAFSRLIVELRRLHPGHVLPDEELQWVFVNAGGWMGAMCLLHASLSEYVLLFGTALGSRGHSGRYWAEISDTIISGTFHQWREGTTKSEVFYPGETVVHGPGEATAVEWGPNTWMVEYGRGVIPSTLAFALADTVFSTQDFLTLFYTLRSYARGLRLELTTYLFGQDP

[20] = molecular target: Histamine H1 receptor (Homo sapiens) (UniProt P35367); assay: Inhibition of histamine H1 receptor at 1 uM
Chain of Histamine H1 receptor (Homo sapiens) (P35367 whole entry): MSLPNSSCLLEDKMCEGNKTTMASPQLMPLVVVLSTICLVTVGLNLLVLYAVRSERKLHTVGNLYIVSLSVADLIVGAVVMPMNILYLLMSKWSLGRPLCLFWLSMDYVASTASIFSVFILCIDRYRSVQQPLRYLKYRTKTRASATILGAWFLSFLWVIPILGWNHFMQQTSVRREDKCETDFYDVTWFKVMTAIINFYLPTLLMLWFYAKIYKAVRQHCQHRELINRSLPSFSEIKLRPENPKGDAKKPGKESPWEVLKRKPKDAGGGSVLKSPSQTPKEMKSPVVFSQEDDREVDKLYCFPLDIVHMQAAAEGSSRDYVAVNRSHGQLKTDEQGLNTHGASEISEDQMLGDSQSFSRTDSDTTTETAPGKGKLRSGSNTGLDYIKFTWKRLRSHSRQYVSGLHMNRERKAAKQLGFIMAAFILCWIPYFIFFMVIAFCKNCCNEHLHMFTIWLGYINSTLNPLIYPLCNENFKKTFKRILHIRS

[21] = molecular target: T3, Glucocorticoid receptor
Description: Binding affinity to human glucocorticoid receptor by fluorescence polarization competitive binding assay

[22] = Selectivity for human glucocorticoid receptor over androgen receptor
[23] = Inhibition of ATP-sensitive potassium channel at 1 uM
[24] = molecular target: hERG (KCNH2) (Homo sapiens, UniProt Q12809); assay: Inhibition of human ERG at 1 uM
Chain of hERG (KCNH2) (Q12809 whole entry): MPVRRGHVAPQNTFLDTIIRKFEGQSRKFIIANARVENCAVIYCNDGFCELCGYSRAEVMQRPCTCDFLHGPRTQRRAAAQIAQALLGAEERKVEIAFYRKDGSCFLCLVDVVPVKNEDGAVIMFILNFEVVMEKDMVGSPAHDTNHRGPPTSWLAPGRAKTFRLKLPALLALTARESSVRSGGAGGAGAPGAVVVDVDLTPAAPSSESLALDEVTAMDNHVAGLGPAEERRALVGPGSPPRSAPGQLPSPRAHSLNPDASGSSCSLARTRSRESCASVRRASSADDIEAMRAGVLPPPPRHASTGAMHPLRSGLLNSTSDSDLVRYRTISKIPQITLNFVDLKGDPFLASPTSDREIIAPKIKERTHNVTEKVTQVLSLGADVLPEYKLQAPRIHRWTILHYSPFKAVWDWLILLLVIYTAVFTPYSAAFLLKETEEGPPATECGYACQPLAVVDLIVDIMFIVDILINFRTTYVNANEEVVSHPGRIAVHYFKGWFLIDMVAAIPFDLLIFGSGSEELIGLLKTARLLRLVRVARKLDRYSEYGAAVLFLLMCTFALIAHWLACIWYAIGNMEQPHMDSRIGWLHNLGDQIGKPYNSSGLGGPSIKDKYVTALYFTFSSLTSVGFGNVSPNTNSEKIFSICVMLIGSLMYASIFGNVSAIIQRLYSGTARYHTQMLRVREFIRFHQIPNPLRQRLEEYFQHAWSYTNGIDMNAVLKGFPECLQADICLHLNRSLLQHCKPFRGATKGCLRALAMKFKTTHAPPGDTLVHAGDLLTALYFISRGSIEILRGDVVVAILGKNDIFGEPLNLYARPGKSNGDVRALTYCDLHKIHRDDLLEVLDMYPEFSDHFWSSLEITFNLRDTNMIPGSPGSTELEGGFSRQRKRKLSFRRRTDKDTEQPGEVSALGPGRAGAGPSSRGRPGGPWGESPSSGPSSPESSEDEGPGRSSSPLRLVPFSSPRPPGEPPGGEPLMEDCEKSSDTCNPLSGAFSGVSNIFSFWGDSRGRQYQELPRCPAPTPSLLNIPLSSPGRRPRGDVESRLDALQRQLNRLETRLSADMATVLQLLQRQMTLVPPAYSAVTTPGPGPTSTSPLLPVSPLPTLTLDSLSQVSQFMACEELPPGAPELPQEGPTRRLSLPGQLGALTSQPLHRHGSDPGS

[25] = Inhibition of central imidazoline I2 receptor at 1 uM
[26] = molecular target: Muscarinic acetylcholine receptor M3 (Homo sapiens) (UniProt P20309); assay: Inhibition of muscarinic M3 receptor at 1 uM
Chain of Muscarinic acetylcholine receptor M3 (Homo sapiens) (P20309 whole entry, looked up): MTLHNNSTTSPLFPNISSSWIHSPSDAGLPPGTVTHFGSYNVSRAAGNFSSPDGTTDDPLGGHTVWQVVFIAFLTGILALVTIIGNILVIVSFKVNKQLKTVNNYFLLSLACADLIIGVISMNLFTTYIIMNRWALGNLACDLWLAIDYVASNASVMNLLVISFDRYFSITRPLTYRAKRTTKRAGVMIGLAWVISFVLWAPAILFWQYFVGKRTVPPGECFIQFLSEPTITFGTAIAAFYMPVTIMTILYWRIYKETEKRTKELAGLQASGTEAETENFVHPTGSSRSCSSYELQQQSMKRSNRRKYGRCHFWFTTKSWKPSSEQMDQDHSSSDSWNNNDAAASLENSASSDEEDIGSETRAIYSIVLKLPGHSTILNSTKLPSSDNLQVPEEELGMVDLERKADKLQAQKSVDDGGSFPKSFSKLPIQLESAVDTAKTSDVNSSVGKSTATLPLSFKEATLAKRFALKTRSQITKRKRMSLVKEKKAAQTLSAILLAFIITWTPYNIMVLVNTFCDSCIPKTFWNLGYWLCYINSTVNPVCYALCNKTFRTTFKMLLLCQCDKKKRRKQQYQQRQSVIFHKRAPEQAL

[27] = molecular target: Mu-type opioid receptor (Homo sapiens) (UniProt P35372); assay: Inhibition of mu opioid receptor at 1 uM
Chain of Mu-type opioid receptor (Homo sapiens) (P35372 whole entry): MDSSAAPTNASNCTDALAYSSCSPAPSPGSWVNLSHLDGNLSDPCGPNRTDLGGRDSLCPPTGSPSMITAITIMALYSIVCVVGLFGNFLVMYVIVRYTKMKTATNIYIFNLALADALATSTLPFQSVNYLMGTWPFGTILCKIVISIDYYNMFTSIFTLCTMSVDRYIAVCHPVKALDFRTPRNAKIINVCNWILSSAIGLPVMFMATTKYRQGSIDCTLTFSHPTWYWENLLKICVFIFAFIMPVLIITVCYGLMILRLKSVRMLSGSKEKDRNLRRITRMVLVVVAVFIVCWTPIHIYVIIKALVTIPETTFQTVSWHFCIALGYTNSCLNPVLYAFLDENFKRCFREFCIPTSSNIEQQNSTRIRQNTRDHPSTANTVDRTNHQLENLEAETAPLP

[28] = molecular target: Prostaglandin E2 receptor EP4 subtype (Homo sapiens) (UniProt P35408); assay: Inhibition of prostanoid EP4 receptor at 1 uM
Chain of Prostaglandin E2 receptor EP4 subtype (Homo sapiens) (P35408 whole entry): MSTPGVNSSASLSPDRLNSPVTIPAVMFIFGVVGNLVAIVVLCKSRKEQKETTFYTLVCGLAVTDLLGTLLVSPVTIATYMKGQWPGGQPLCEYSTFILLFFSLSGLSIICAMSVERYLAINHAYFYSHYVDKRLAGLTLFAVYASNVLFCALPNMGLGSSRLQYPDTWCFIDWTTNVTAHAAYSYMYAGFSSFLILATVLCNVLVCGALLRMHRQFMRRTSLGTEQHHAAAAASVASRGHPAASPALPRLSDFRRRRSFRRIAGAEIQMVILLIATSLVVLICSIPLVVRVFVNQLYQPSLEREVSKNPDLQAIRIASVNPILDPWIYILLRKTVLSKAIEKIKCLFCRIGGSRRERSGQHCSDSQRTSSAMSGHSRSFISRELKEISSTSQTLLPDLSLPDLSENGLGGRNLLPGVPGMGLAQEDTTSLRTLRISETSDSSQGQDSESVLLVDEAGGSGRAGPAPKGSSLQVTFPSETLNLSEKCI

Chain of Beta-1 adrenergic receptor (Homo sapiens) (P08588 whole entry, looked up): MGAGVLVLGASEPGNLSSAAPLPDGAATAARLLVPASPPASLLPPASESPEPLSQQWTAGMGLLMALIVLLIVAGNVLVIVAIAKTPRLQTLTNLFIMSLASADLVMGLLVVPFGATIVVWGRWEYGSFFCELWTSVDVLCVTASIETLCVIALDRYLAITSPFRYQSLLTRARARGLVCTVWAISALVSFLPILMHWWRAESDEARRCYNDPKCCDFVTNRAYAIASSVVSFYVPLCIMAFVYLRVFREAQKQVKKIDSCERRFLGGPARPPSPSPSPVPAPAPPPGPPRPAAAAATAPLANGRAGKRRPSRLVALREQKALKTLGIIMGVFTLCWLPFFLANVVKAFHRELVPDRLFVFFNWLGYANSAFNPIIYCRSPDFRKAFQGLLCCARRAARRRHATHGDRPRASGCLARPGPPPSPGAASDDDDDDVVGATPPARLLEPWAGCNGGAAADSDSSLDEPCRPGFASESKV

Row | SMILES | inhibition [1] [%] | inhibition [2] [%] | inhibition [3] [%] | inhibition [4] [%] | Ratio [5] | inhibition [6] [%] | Ratio [7] | inhibition [8] [%] | inhibition [9] [%] | inhibition [10] [%] | inhibition [11] [%] | inhibition [12] [%] | inhibition [13] [%] | inhibition [14] [%] | EC50 [15] [nM] | inhibition [16] [%] | EC50 [17] | inhibition [18] [%] | inhibition [19] [%] | inhibition [20] [%] | further results
1 | OC(c1ccnc(Cl)c1)(c1ccc2c(cnn2-c2ccc(F)cc2)c1)C(F)(F)F (single isomer, unassigned; (-)) | < 50 | < 50 | < 50 | < 50 | > 1000 | < 50 | > 1000 | < 50 | < 50 | < 50 | < 50 | < 50 | < 50 | < 50 | 627 | < 50 | Not Active | < 50 | < 50 | < 50 | IC50 [21]: 14 nM; Ratio [22]: > 1000; inhibition [23]: < 50%; inhibition at 1 µM [24]: < 50%; inhibition [25]: < 50%; inhibition [26]: < 50%; inhibition [27]: < 50%; inhibition [28]: < 50%
2 | Cc1cc(C(O)(c2ccc3c(cnn3-c3ccc(F)cc3)c2)C(F)(F)F)ccc1F (single isomer, unassigned; (-)) | < 50 | < 50 | < 50 | < 50 | > 1000 | < 50 | > 1000 | < 50 | < 50 | < 50 | < 50 | < 50 | < 50 | < 50 | 93 | < 50 | Not Active | < 50 | < 50 | < 50 | IC50 [21]: 59 nM; Ratio [22]: > 1000; inhibition [23]: < 50%; inhibition at 1 µM [24]: < 50%; inhibition [25]: < 50%; inhibition [26]: < 50%; inhibition [27]: < 50%; inhibition [28]: < 50%
